Experimental data as given in article PMC6321543, “Cloning, Characterization and Anion Inhibition Studies of a β-Carbonic Anhydrase from the Pathogenic Protozoan Entamoeba histolytica” (Molecules, 2018).

target: T1, EhiCA (Entamoeba histolytica, UniProt C4LXK3); assay: biochemical; settings: not given
T1 construct: gene EHI_073380; His-tag cleaved with thrombin; 21 kDa (21/25 kDa doublet); one Zn per chain; Zn ligands Cys50, His103, Cys106, dyad Asp52-Arg54; dimer and trimer seen on SDS-PAGE
T1 sequence (C4LXK3 1-188): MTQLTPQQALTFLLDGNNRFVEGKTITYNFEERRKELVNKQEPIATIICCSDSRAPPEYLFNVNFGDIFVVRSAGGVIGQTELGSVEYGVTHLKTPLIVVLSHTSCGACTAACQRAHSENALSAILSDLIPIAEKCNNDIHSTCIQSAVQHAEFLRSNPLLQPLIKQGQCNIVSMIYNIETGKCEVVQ

| SMILES | Ki |
| --- | --- |
| O=P(O)(O)OP(=O)(O)O [P2O7^4−] | > 100 mM |
| O=S(=O)(O)O [SO4^2−] | 21.6 mM |
| N#CS [SCN^−] | 7.9 mM |
| I [I^−] | 7.4 mM |

same assay, conditions: CO2 hydration, TRIS pH 8.3, 20 °C (methods: 25 °C), 0.1 M NaClO4, 15 min pre-incubation; as sodium salt; read-out: KI [mM] ^#

| SMILES | Ki |
| --- | --- |
| F[P-](F)(F)(F)(F)F [PF6^−] | > 100 mM |

same assay, conditions: read-out: KI [mM] ^#

| SMILES | Ki |
| --- | --- |
| OB(O)c1ccccc1 [Ph-B(OH)2] | 0.047 mM |
| CCN(CC)C(=S)S [Et2NCS2^−] | 0.51 mM |
| NS(=O)(=O)O [H2NSO3H] | > 100 mM |
| [O]=[V]([OH])([OH])[O][V](=[O])([OH])[OH] [V2O7^4−] | > 100 mM |
| NS(N)(=O)=O [H2NSO2NH2] | 0.028 mM |
| N#C[SeH] [SeCN^−] | 0.87 mM |
| O=S(=O)(O)F [FSO3^−] | 0.086 mM |
| O=[Te](=O)(O)O [TeO4^2−] | 0.61 mM |
| [O-][Cl+3]([O-])([O-])O [ClO4^−] | > 100 mM |
| O=NO [NO2^−] | 1.7 mM |
| F[B-](F)(F)F [BF4^−] | > 100 mM |
| S=C(S)S [CS3^2−] | 6 mM |
| [O]=[Re](=[O])(=[O])[OH] [ReO4^−] | 7.1 mM |
| F [F^−] | > 100 mM |
| Cl [Cl^−] | > 100 mM |
| S [HS^−] | 6.9 mM |
| O=S(=O)(O)C(F)(F)F [CF3SO3^−] | > 100 mM |
| O=[Se](=O)(O)O [SeO4^2−] | 6 mM |
| N#CO [CNO^−] | 0.77 mM |
| O=S(O)O [HSO3^−] | 11.5 mM |
| Br [Br^−] | 36.8 mM |
| [O]=[Ru](=[O])(=[O])[OH] [RuO4^−] | 7 mM |
| O=[N+]([O-])O [NO3^−] | 3.6 mM |
| O=S(=O)(O)NS(=O)(=O)O [NH(SO3)2^2−] | 2.2 mM |
| O=S(=O)(O)OOS(=O)(=O)O [S2O8^2−] | 8.4 mM |
